{"source": "patent US8202910B2", "about": "(Sequella, Inc., priority 2006, dated 2012)", "key": {"[1]": {"assay": "Metabolism by human liver microsomes", "format": "in vitro ADME", "settings": "after 40 min incubation", "from_the_text": "(§1) Two of the groups contained oxidized metabolites. […] Based on the finding that SQ109 was metabolized rapidly by CYP, it is possible that its antimycobacterial activity may come from one of its metabolites. It is conceivable that SQ109 is a prodrug and requires activation by mycobacterial CYP. We speculate that when SQ109 is used in combination with rifampicin, the latter induces certain CYP activity within the Mycobacteria. Elevated CYP activity activates the SQ109 prodrug more efficiently, resulting in an apparent synergistic activity of the two drugs."}, "M. kansasii": {"tested_on": "M. kansasii", "assay": "Spectrum of activity MIC, MOTT, agar proportion method", "format": "cell-based", "settings": "Mycobacterium kansasii; three tested"}, "M. tuberculosis H37Rv": {"tested_on": "M. tuberculosis H37Rv", "assay": "Standard chronic mouse model of tuberculosis, CFU in lung", "format": "in vivo, C57BL/6 female mice"}, "wild type of M.tb": {"tested_on": "wild type of M.tb", "assay": "MIC, secondary screening, wild type", "format": "cell-based, Mycobacterium tuberculosis", "settings": "Mycobacterium tuberculosis, WT"}, "human CYP2D6": {"biological_target": "human CYP2D6 (Homo sapiens, UniProt P10635)", "sequence (P10635 whole entry)": "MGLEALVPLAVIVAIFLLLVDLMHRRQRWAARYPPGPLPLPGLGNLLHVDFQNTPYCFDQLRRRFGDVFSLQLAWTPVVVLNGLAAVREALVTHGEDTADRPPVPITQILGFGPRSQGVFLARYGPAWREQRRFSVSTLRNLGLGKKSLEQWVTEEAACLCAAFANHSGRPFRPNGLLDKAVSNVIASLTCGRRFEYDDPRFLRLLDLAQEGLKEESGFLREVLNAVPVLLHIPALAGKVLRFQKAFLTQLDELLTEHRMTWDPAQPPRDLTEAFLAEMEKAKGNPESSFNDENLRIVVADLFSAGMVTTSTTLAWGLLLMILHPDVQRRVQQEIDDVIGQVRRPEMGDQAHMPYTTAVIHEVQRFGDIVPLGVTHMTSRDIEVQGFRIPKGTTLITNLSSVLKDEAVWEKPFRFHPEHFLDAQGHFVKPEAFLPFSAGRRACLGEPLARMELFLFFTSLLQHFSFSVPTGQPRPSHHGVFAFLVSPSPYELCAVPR", "assay": "Metabolism by CYP2D6", "format": "in vitro ADME", "from_the_text": "as §1"}, "dopamine receptor D1": {"biological_target": "T1, dopamine receptor D1 (Homo sapiens, UniProt P21728)", "T1 construct": "CEREP (contract testing)", "T1 sequence (P21728 whole entry)": "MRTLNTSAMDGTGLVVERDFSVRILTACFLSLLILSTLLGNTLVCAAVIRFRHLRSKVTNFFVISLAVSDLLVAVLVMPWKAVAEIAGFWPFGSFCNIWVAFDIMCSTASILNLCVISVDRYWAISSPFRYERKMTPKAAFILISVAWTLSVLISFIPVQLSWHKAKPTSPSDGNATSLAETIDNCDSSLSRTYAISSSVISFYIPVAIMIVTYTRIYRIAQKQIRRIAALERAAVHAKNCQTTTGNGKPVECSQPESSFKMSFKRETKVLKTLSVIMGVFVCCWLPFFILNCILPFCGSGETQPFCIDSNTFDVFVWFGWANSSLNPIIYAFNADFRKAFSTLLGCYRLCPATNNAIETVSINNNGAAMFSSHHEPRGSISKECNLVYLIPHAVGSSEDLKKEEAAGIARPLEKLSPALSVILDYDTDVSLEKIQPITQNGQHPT", "assay": "CEREP receptor binding, D1", "settings": "tested at 10 μM; read-out: inhibition of control specific binding", "from_the_text": "(§2) In vitro testing for safety pharmacology and early ADMET (Absorption, Distribution, Metabolism, Excretion, Toxicity) studies of compound 109 were contracted out to CEREP (15318 NE 95th Street, Redmond, Wash., 98052, USA www.cerep.com) under a service agreement and included evaluation of inhibitory binding to a panel of 27 standard receptors and three transporters (See FIG. 60 (Table 31) and FIG. 61 (Table 32)) which included: adenosine receptors (A1 and A2A), adrenergic receptors (alpha 1, alpha 2, beta 1), angiotensin II receptor (AT1), benzodiazapene receptor (BZD), bradykinin receptor (B2), cholecystokinin receptor (CCK1), dopamine receptors (D1, D2S), endothelin receptor (ETA), GABA receptor (GABA), glutamate receptor (NMDA), histamine receptor (H1 central), melanocortin receptor (MC4), muscarinic receptor (M, non-selective), neurokinin receptor (NK1), neuropeptide Y receptor (Y), nicotinic receptor (neuronal, alpha-BGTX-insensitive), opiate receptor (non-selective opiate), orphanin receptor (ORL1), phencyclidine receptor (PCP), serotonin receptor (5-HT), sigma receptor (sigma non-selective), steroid receptor (glucocorticoid receptor, GR), and NE, DA, and 5-HT transporters.\n(§3) The specific ligand binding to the receptors is defined as the difference between the total binding and the nonspecific binding determined in the presence of an excess of unlabelled ligand."}, "M. bovis": {"tested_on": "M. bovis", "assay": "microbe, parasite or virus in culture", "format": "cell-based", "settings": "Mycobacterium tuberculosis variant bovis"}, "[2]": {"tested_on": "RIF^R M. tuberculosis strain 2482", "format": "cell-based"}, "M. avium complex (MAC)": {"tested_on": "M. avium complex (MAC)", "assay": "Spectrum of activity MIC, MOTT, agar proportion method", "format": "cell-based", "settings": "Mycobacterium avium; three isolates"}, "M. bovis BCG": {"tested_on": "M. bovis BCG", "assay": "microbe, parasite or virus in culture", "format": "cell-based", "settings": "Mycobacterium tuberculosis variant bovis BCG"}, "M. fortuitum": {"tested_on": "M. fortuitum", "assay": "Spectrum of activity MIC, rapid-grower, broth microdilution (NCCLS M24-A)", "format": "cell-based", "settings": "Mycolicibacterium fortuitum; all strains tested"}, "M. tuberculosis": {"tested_on": "M. tuberculosis", "assay": "Minimum Bactericidal Concentration (MBC)", "format": "cell-based", "settings": "Mycobacterium tuberculosis"}, "human CYP2C19": {"biological_target": "human CYP2C19 (Homo sapiens, UniProt P33261)", "sequence (P33261 whole entry)": "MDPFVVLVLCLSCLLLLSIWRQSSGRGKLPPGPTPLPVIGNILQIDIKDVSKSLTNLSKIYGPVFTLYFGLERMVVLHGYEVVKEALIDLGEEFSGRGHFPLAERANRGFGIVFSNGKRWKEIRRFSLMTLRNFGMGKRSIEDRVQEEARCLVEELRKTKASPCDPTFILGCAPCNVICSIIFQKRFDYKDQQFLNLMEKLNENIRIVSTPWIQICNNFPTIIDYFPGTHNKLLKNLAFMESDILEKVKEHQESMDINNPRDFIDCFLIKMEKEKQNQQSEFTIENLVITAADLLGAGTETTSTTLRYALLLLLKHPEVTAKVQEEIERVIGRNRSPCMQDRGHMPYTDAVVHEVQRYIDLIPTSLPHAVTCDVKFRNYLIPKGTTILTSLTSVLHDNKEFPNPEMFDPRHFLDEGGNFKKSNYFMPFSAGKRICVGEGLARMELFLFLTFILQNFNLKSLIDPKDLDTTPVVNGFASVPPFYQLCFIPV", "assay": "Metabolism by CYP2C19", "format": "in vitro ADME", "from_the_text": "as §1"}, "[3]": {"tested_on": "M. chelonae group (M. chelonae and M. abscessus)", "assay": "Spectrum of activity MIC, rapid-grower, broth microdilution (NCCLS M24-A)", "format": "cell-based", "settings": "Mycobacteroides chelonae; three strains tested"}, "dopamine receptor D2S": {"biological_target": "T2, dopamine receptor D2S (Homo sapiens, UniProt P14416)", "T2 construct": "CEREP (contract testing)", "T2 sequence (P14416 1-414 isoform P14416-2)": "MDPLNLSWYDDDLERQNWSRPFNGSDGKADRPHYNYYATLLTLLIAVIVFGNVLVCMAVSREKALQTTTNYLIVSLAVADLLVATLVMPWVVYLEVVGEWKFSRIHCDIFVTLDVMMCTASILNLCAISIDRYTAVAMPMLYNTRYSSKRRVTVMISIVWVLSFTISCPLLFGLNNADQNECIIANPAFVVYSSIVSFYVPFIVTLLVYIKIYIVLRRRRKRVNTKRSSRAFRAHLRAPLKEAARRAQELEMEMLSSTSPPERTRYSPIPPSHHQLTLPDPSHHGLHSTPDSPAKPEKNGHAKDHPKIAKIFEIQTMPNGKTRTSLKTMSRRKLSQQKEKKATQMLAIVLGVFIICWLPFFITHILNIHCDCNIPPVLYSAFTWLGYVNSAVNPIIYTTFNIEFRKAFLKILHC", "assay": "CEREP receptor binding, D2S", "settings": "tested at 10 μM; read-out: inhibition of control specific binding", "from_the_text": "as §2, §3"}, "[4]": {"tested_on": "RIF^R M. tuberculosis strain 3185", "format": "cell-based"}, "[5]": {"tested_on": "sigma receptor (sigma non-selective)", "assay": "CEREP receptor binding, sigma", "settings": "tested at 10 μM", "from_the_text": "as §2, §3"}, "M. marinum": {"tested_on": "M. marinum", "assay": "Spectrum of activity MIC, MOTT, agar proportion method", "format": "cell-based", "settings": "Mycobacterium marinum; three strains"}, "in vivo": {"assay": "in vivo", "parameters": "species or system mice", "settings": "mouse", "method": "Initially, analytical methods for determination of the compounds had been developed that allowed to carry out all the PK experiments, sec FIG. 29. Here is a brief description of the experiment: (1) plasma spiked with tested compounds and 10 uL of Terfenadine or plasma samples (200 uL) added; (2) ACN (2 mL) added to precipitate protein and spin at 2,500 rpm; (3) evaporate supernatant to dryness; (4) add 200 uL of the diluting solvent: methanol (with 0.1% of trifluoroacetic acid): ammonium acetate (80/20); (5) vortex, spin, and use supernatant; (6) run LC/MS/MS on Sciex API 3000.\nPilot PK study of the compounds 37, 59, and 109 in mice was conducted using a cassette dosing: all the three analogs were formulated together in saline at 1.5 mg/mL, and administered to mice simultaneously orally at 25 mg/kg, peritoneally at 6 mg/kg, and intravenously. […] Obtained data are presented on FIGS. 30, 31, and 32 (tested compounds were studied under the NCI′ indexation NSC) and summarized in Table 19."}}, "note": "Read-outs that look alike come from different tables or passages of the source."}
{"smiles": "CC(C)=CCC/C(C)=C/CNCCNC1C2CC3CC(C2)CC1C3", "note": "(stereo not drawn) [Compound 109, N-Geranyl-N′-(2-adamanthyl)ethane-1,2-diamine]", "values": [{"measurement": "SQ109 remaining", "setting": "[1]", "result": 8, "unit": "%"}, {"measurement": "MIC", "setting": "M. kansasii", "result": 16, "unit": "µg/mL"}, {"measurement": "CFU in lung", "setting": "M. tuberculosis H37Rv; INH+RIF+SQ109 at 25, 20 and 10 mg/kg, wk 4", "result": 3.2, "unit": "log10CFU"}, {"measurement": "CFU in lung", "setting": "M. tuberculosis H37Rv; SQ109 by itself, 4 week therapy, control untreated 8.1", "result": 6.6, "unit": "log10CFU"}, {"measurement": "CFU in lung", "setting": "M. tuberculosis H37Rv; combination SQ109+RIF at 10 and 20 mg/kg, 4 week therapy", "result": 4.8, "unit": "log10"}, {"measurement": "MIC", "setting": "wild type of M.tb; value in brackets, read-out: MIC (or uM)", "result": 0.18, "unit": "µM"}, {"measurement": "MIC", "setting": "wild type of M.tb; EMB, RL241, Cmpd#59 as 2HCl salt, Cmpd#109 as 2CF3COOH salt, read-out: MIC", "result": 0.1, "unit": "µg/mL"}, {"measurement": "metabolism by CYP", "setting": "human CYP2D6", "result": "metabolized"}, {"measurement": "inhibition at 10 µM", "setting": "dopamine receptor D1", "result": 51, "unit": "%"}, {"measurement": "MIC", "setting": "M. bovis", "result": 0.25, "unit": "µg/mL"}, {"measurement": "x/y quotient", "setting": "[2]; 0.25 MIC SQ109 (0.08 mg/L) + 10 mg/L rifampicin", "result": 0.66}, {"measurement": "x/y quotient", "setting": "[2]; 0.5 MIC SQ109 + rifampicin 25 mg/L", "result": 0.497}, {"measurement": "x/y quotient", "setting": "[2]; 0.5 MIC SQ109 + rifampicin 50 mg/L", "result": 0.39}, {"measurement": "x/y quotient", "setting": "[2]; 0.5 MIC SQ109 + rifampicin 100 mg/L", "result": 0.33}, {"measurement": "growth inhibition", "setting": "[2]; 0.5 MIC SQ109 added to 100 mg/L rifampicin", "result": "more than 99%"}, {"measurement": "MIC", "setting": "M. avium complex (MAC)", "result": "8 to 32", "unit": "µg/mL"}, {"measurement": "MIC", "setting": "M. bovis BCG", "result": 0.5, "unit": "µg/mL"}, {"measurement": "MIC", "setting": "M. fortuitum", "result": 1, "unit": "µg/mL"}, {"measurement": "MBC", "setting": "M. tuberculosis", "result": 0.313, "unit": "µg/mL"}, {"measurement": "metabolism by CYP", "setting": "human CYP2C19", "result": "metabolized"}, {"measurement": "MIC", "setting": "[3]", "result": 16, "unit": "µg/mL"}, {"measurement": "inhibition at 10 µM", "setting": "dopamine receptor D2S", "result": 73, "unit": "%"}, {"measurement": "growth inhibition", "setting": "[4]", "result": "greater than 99%"}, {"measurement": "x/y quotient", "setting": "[4]; 0.5 MIC SQ109 + rifampicin 4 mg/L", "result": 0.64}, {"measurement": "x/y quotient", "setting": "[4]; 0.5 MIC SQ109 + rifampicin 8 mg/L", "result": 0.48}, {"measurement": "x/y quotient", "setting": "[4]; 0.5 MIC SQ109 + rifampicin 12 mg/L", "result": 0.40}, {"measurement": "x/y quotient", "setting": "[4]; 0.5 MIC SQ109 + rifampicin 16 mg/L", "result": 0.35}, {"measurement": "inhibition of control specific binding", "setting": "[5]", "result": 106, "unit": "%"}, {"measurement": "MIC", "setting": "M. marinum", "result": 8, "unit": "µg/mL"}, {"measurement": "AUC", "setting": "in vivo; ip, 6 mg/kg", "result": 1100, "unit": "ng·h/mL"}, {"measurement": "Cmax", "setting": "in vivo; ip, 6 mg/kg", "result": 935, "unit": "ng/mL"}, {"measurement": "Urine excretion (%)", "setting": "in vivo; ip, 6 mg/kg", "result": "<0.01", "unit": "%"}, {"measurement": "bioavailability", "setting": "in vivo; ip, 6 mg/kg", "result": 55, "unit": "%"}, {"measurement": "half-life", "setting": "in vivo; ip, 6 mg/kg", "result": 264, "unit": "min"}, {"measurement": "AUC", "setting": "in vivo; iv, 3 mg/kg", "result": 1010, "unit": "ng·h/mL"}, {"measurement": "Cmax", "setting": "in vivo; iv, 3 mg/kg", "result": 1190, "unit": "ng/mL"}, {"measurement": "Urine excretion (%)", "setting": "in vivo; iv, 3 mg/kg", "result": ".92%"}, {"measurement": "clearance", "setting": "in vivo; iv, 3 mg/kg", "result": 54, "unit": "mL/min/kg"}, {"measurement": "half-life", "setting": "in vivo; iv, 3 mg/kg", "result": 330, "unit": "min"}, {"measurement": "AUC", "setting": "in vivo; po, 25 mg/kg", "result": 655, "unit": "ng·h/mL"}, {"measurement": "Cmax", "setting": "in vivo; po, 25 mg/kg", "result": 227, "unit": "ng/mL"}, {"measurement": "bioavailability", "setting": "in vivo; po, 25 mg/kg", "result": 2.7, "unit": "%"}]}
